Measurements from PMC5931475, “Deciphering the molecular determinants of cholinergic anthelmintic sensitivity in nematodes: When novel functional validation approaches highlight major differences between the model Caenorhabditis elegans and parasitic species” (PLoS Pathogens, 2018).

What was measured:
[1] = test system: T1, composite Cel-L-AChR with Dim-ACR-8 (29/38/63/L1 + Dim-ACR-8); parameters: species or system Xenopus laevis oocytes; Agonist-evoked currents in cRNA-injected oocytes, concentration-response normalized to 100 uM ACh; settings: Imax as % of 100 uM ACh response; agonist
T1 construct: mixed-species complex of whole subunits; cRNA in Xenopus laevis oocytes with C. elegans RIC-3, UNC-50, UNC-74; LEV-8 replaced by D. immitis ACR-8

[2] = biological target: T1, composite Cel-L-AChR with Dim-ACR-8 (29/38/63/L1 + Dim-ACR-8); assay: two-electrode voltage clamp, Xenopus oocytes; format: cell-based, Caenorhabditis elegans; Dirofilaria immitis; settings: read-out: Lev EC50; agonist; responses normalized to 100 μM ACh

T1 sequence (A0A2I6TEL0 22-518): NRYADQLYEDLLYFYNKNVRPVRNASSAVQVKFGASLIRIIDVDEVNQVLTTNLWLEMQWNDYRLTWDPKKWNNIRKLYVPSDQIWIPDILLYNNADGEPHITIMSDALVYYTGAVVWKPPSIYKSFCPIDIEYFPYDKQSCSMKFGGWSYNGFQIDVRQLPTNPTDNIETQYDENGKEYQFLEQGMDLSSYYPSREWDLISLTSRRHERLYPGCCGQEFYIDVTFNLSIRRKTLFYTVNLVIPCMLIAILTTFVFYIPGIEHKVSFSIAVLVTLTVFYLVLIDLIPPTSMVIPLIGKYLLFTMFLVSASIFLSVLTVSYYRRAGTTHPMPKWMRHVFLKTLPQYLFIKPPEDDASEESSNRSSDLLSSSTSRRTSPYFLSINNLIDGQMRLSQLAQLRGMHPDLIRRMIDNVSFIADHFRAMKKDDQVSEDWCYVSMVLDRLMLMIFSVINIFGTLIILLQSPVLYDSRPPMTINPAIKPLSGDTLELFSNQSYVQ
T1 sequence (Q23022 17-511, further chain): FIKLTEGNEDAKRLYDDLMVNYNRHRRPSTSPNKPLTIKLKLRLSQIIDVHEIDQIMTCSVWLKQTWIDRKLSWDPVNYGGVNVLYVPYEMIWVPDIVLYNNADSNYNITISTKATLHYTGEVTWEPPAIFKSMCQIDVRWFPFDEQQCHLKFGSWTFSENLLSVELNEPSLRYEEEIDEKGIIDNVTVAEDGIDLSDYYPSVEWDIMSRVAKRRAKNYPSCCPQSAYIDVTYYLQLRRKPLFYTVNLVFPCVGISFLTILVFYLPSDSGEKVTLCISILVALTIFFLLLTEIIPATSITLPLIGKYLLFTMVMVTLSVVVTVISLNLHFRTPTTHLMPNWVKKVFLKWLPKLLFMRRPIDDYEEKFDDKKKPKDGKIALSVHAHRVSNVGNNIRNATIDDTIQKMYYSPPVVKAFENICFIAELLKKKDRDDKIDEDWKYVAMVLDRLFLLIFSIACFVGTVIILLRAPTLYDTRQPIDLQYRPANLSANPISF
T1 sequence (Q9N587 24-502, further chain): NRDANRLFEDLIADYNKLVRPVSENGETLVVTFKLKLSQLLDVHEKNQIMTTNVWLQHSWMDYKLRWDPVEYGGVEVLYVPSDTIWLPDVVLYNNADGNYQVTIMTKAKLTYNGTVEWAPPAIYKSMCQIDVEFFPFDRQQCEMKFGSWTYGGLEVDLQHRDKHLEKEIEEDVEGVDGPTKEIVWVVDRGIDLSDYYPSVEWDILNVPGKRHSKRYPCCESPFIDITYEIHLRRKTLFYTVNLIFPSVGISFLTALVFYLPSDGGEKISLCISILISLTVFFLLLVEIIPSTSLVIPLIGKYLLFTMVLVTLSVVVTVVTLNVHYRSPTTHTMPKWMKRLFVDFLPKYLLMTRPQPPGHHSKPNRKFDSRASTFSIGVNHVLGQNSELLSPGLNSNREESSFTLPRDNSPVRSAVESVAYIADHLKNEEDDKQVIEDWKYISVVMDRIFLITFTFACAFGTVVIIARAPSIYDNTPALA
T1 sequence (P48181 27-493, further chain): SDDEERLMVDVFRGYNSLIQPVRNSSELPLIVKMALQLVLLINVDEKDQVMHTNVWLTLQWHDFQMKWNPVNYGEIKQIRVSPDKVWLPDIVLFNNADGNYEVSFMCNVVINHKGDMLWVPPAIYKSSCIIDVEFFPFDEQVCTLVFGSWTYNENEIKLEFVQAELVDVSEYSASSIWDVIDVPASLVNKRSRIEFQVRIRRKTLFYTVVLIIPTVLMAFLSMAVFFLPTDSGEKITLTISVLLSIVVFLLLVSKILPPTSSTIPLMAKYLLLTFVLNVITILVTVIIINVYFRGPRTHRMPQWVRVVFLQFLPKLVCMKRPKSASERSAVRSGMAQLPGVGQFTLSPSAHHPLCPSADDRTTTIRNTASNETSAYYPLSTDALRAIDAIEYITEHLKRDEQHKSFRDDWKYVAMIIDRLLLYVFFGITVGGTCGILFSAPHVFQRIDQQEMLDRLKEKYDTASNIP
T1 sequence (Q27218 32-507, further chain): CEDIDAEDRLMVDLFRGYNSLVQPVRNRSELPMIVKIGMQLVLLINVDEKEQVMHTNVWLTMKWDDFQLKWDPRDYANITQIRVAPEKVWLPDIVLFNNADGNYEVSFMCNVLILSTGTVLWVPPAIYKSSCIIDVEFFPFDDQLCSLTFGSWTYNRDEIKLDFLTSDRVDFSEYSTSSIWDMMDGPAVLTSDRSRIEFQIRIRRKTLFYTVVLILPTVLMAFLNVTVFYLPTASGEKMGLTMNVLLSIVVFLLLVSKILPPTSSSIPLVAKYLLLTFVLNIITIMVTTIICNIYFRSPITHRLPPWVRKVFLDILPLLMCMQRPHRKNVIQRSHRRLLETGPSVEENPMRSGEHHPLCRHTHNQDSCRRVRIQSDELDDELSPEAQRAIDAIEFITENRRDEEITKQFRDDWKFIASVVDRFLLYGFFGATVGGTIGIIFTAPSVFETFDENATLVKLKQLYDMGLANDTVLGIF

## c1ccc([C@H]2CN3CCSC3=N2)cc1 [levamisole]
[1]
  Lev Imax: 29.0 ±1.2%
[2]
  EC50: 5.9 ± 1.3 µM
